Data published in PMC5150697 (ACS Medicinal Chemistry Letters, 2016).

Tests used:
[1] = target: human serum albumin (HSA) (Homo sapiens, UniProt P02768); assay: Equilibrium dialysis with HSA; type: in vitro ADME; conditions: 1 µM, 4% HSA, pH 7.4, 37 °C, 4 h, n = 3
[2] = test system: human α1 AGP; assay: Equilibrium dialysis with human α1 AGP; type: in vitro ADME; conditions: 1 µM, 0.1% AGP, pH 7.4, 37 °C, 4 h, n = 3
[3] = test system: ABCA1 induction in human whole blood; assay: Human whole blood assay; type: cell-based; conditions: for improvement in hWBA potency compared to 5: ratio of hWBA EC50 values vs 5
[4] = after multiple days of dosing, limited therapeutic window; cited from earlier work

Sequence of human serum albumin (HSA) (P02768 25-609): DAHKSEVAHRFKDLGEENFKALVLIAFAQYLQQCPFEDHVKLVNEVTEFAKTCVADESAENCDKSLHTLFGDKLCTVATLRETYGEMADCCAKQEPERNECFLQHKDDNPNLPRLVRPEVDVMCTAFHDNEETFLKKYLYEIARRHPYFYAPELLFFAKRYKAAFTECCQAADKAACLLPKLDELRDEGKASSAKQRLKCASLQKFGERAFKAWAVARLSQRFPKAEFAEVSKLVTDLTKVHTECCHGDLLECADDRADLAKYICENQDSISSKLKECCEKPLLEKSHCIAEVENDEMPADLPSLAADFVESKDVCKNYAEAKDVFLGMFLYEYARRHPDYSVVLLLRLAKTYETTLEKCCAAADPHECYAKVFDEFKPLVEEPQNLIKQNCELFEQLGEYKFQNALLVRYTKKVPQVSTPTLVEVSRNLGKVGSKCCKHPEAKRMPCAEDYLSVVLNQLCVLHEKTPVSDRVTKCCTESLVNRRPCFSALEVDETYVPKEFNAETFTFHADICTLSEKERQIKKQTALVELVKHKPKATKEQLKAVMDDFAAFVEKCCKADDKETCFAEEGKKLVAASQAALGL

human α1 AGP (% bound) [2] | Structure (SMILES) | improvement in hWBA potency compared to 5 [3] | also measured
99.9 ± 0.0% | CC(C)(O)c1cn(-c2ccc(-c3cccc(S(C)(=O)=O)c3)cc2)c(C(C)(C)c2ccccc2Cl)n1 [Example 5] |  | HSA (% bound) [1]: 97.2 ± 0.3%
99.6 ± 0.2% | CC(C)(O)c1cn(-c2ccc(-c3cccc(S(C)(=O)=O)c3)cc2)c(C(C)(C)c2c(Cl)cccc2Cl)n1 [Example 6] | 3 fold | 
 | CC(C)(O)c1cn(-c2ccc(-c3cc(F)c(CO)c(S(C)(=O)=O)c3)cc2)c(C(C)(C)c2ccccc2Cl)n1 [Example 10] | 20 fold | 
 | CC(C)(O)c1cn(-c2ccc(-c3cc(F)c(CO)c(S(C)(=O)=O)c3)cc2)c(C(C)(C)c2c(Cl)cccc2Cl)n1 [Example 12] |  | improvement in hWBA potency ([3]; 2,6-dichloro analogue vs 10): 3–4 fold
 | CC(C)(O)c1cn(-c2ccc(-c3cc(F)c(CO)c(S(C)(=O)=O)c3)cc2F)c(C(C)(C)c2c(Cl)cccc2Cl)n1 [Example 15] |  | TGs and LDL-C in human trials [4]: elevated
